Assay results published in patent EP1785722A1, “Microbial, viral and mammalian susceptibility to agents that affect cell growth and metabolism, and compatibility of compounds” (Stratos Bio Ltd., priority 2005, dated 2007).

Tests used:
Bacillus pumilus = assay: Flow microcalorimetry (p-t curves) of growing Bacillus pumilus; assay type: cell-based
Source text: (§1) • a) For B. pumilus a simple glucose/salts medium was employed with a glucose concentration of 0.1 % w/v. • b) For Bord. bronch. The above salts medium was used with the addition of nicotinic acid, methionine and glutamic acid. Glutamic acid was used at a concentration of 0.2% w/v. • c) For M. flavus a semidefined medium was employed, using the same salts as a B. pumilus but also Na-citrate, biotin and protease peptone. In the calorimeter a concentration of 0.4% protease peptone was used. All medium constituents (except protease) were analytical reagents. The calorimetric medium was therefore a final concentration of 100ml of either solution a, b or c freshly autoclaved for 15 mins exactly at 121°C, 151b/sq inch. Glucose was added to the appropriate solution after autoclaving.
(§2) To the vertical face of the vessel close to its base, equidistantly spaced around the circumference, ports were fitted for an oxygen electrode and for sampling/inoculation. The fermenter was closed with a flat flanged glass lid which had five ports accommodating respectively, gas inlet tube, gas exhaust (via air condenser), inlet and outlet flow-lines to and from the calorimeter. The fermenter and lid was sealed with a p.t.f.e. gasket and clamped with a metal clip. The fermenter was placed on a magnetic stirring unit in a water jacket which allowed circulation of the thermostatically controlled water at 30°C or 37°C. The fermenter which contained a Teflon coated magnetic stirring bar, was sterilised by autoclaving.
(§3) For a typical calorimetric incubation the medium was passed through the calorimetric vessel at the same flow rate and temperature as those used in the experiment to establish a steady baseline deflection. The following operations then took place to a strict timetable. The liquid nitrogen stored ampoule was thawed at 38°C for 3 min and then stirred for 20 sec on a whirlimixer. The bacterial suspension (0.5-1.5ml) volumes was inoculated into the medium (100ml) two minutes after completion of thawing. A Gilson automatic pipette was used for inoculation. The calorimeter inlet flow-line was placed in the incubation medium 30 seconds after inoculation. The flowing incubation medium reached the calorimetric vessel two min after inlet flow-line insertion. At this time the recording of the p-t curves was started. Eight min after inoculation the outflow from the calorimeter was returned to the fermenter (after the "baseline" medium had run to waste but before the inoculated medium ran to waste) thus making a closed system. Aeration was started as soon as the inlet tube was inserted in the fermenter. Microbiological purity of the culture was checked by plating out a sample of the culture at the end of each incubation on nutrient agar (lab M).
(§4) The output of calorimetric experiments is a plot of power (energy evolution per unit of time) as a function of time. The unit of power (p) is the Watt (W) and the unit of time is the hour (h). In some experiments seconds (s) were used as time unit.
(§5) However when the concentration of organisms was 5.1 x 10^6 cfu/ml which was the inoculum used in the microcalorimetric incubations the MIC was increased to 2 µg/ml; the effect was also bacteriostatic.

[1] = test system: Bordetella Bronchiseptica; assay: Flow microcalorimetry (p-t curves) of growing Bordetella bronchiseptica; assay type: cell-based
Source text: as §1, §2, §3, §4
After successful freezing of Bord. bronch p-t curves for growth in different concentrations of glutamic acid from 0.1%-0.5% were obtained. It was concluded that a medium containing 0.2% glutamic acid would be sufficient for a good deflection in the microcalorimeter minimising the possibility of the bacteria clogging in the microcalorimetric cell or in the teflon tubes leading to and from the microcalorimetric cell. A pH of 7 was used in all the following experiments as this is the optimum pH for polymyxin - lipid binding.
It was of vital importance to maintain a constant oxygen tension; this was achieved by using saturation concentrations of oxygen. It was decided to use the height of the small peak as full scale deflection for the antibiotic assay as the increase in power was exponential up to this point and the peak occurred at a convenient time. This choice of assay point was empirical. The inoculum was 1.1 ± 0.06 x 10^8 cfu/ml for all the microclalorimetric incubations. […]

[2] = test system: Bordetella Bronchiseptica; assay: MIC / MBC against Bordetella bronchiseptica; assay type: cell-based
respiring E.coli = assay: Microcalorimetry of respiring E. coli in glucose buffer; assay type: cell-based
Procedure: E.coli was suspended in 10% DMSO prior to freezing and the viable counts were for batch 1: pre-freeze: 4.0 ± 0.6_ x 10^10 cfu/ml and post -freeze 2.0 ± 0.44 x 10^10 cfu/ml and for batch 2: pre-freeze: 3.45 ± 0.58 x 10^10 cfu/ml and post-freeze 2.93 ± 0.43 x 10^10 cfu/ml. The freezing rate for both batches was 20°C/min the survival rate was 50% for batch 1 and 85% for batch 2. These differences may have been due to batch 1 being kept for 24h at 4°C before being frozen.
The respiration experiments were carried out in glucose buffer at different pH. The respiration curves obtained from batch 1 (inoculum 2 x 10^10 cfu/ml) and batch 2 Inoculum 3.2 x 10^10 cfu/ml) were essentially similar and a mean was used as a reference). The respiration experiments were carried out at pH 7 for polymyxin and Znbacitracin and at pH 8 for neomycin. No differences in p-t control curves could be observed at pH 7 or pH 8.
The p-t curves rose and reached a plateau as has been observed for respiration of yeasts and some 20 min later fell to a lower plateau value. Prior incubation of the cells in the buffered glucose for periods up to 20 min before presentation to the calorimeter could reduce or entirely remove this effect.

E. coli = assay: MIC / MBC against E. coli; assay type: cell-based
B. pumilus = assay: MIC determination against B. pumilus; assay type: cell-based, Bacillus pumilus
Procedure: as §5

Micrococcus flavus [3] = assay: Flow microcalorimetry (p-t curves) of growing Micrococcus flavus; assay type: cell-based; settings: single antibiotic at its MIC (4 ug/ml Neo; 2ug/ml POLB)
Source text: as §1, §2, §3, §4
This point occurred at an increase in deflection of 29.5% from the baseline value.

Micrococcus flavus [4] = assay: MIC / MBC against Micrococcus flavus; assay type: cell-based; settings: as printed in table heads
[5] = 0.25 ug/ml added at 0 % of p-t curve

## Polymyxin B sulphate
Bacillus pumilus; 20ug/ml POLB, pH 8.00
  time until growth was inhibited completely: Within 9 hours growth was inhibited completely
[1]
  concentration above which the declines were identical: > 3.5 x MIC
  time to observable response after addition: ≤ 5 min
[1]; 0.07 ug/ml added at 18 % of p-t curve
  Observed effect on p-t curves: No effect on growth curve
[1]; 0.033 x MIC (0.07 µg/ml)
  response of p-t curve: no response to the antibiotic was observed
[1]; 0.35 -2 ug/ml added at 18 % of p-t curve
  Comments: All curves return to baseline confirmed bacteriocidal action
[1]; 0.35 -2 ug/ml added at 18 % of p-t curve, CV 2.5%
  Observed effect on p-t curves: Linear log dose response 10 min after addition of antibiotic CV 2.5%
[1]; 0.5 x MIC
  time to sharp decline in heat output after addition: ≤ 10 min
[1]; at MIC values
  mode of action: bactericidal
[2]; as printed in table head
  MBC: Ug/ml MIC & MBC 2 ug/ml
[2]; as printed in table heads
  MIC: Ug/ml MIC & MBC 2 ug/ml
[2]; listed as POL
  MIC: 2 µg/mL
[2]; text
  MBC: 2 µg/mL
  MIC: 2 µg/mL
Respiring E.coli
  sensitivity of the assay: 3 µg/mL
Respiring E.coli; Fig. 15
  effect on p-t curve: reduced the initial peak height and thereafter the p-t curve returned to baseline
Respiring E.coli; POLB 6.3 ug/ml
  Comments: Bacteriocidal action demonstrated
Respiring E.coli; POLB 6.3 ug/ml, pH 7
  time to return to baseline (after reduced height of p-t curve initially): Reduced height of p-t curve initially and returned to baseline within 1 hour
E. coli; as printed in table head
  MBC: 6.3 µg/mL
  MIC: 6.3 µg/mL
E. coli; text
  MBC: 6.3 µg/mL
  MIC: 6.3 µg/mL
B. pumilus; as printed in table heads
  MIC: 20 µg/mL
Micrococcus flavus [3]
  Observed effect on p-t curves: Slightly delayed peak
Micrococcus flavus [4]
  MIC: 2 µg/mL

## NC[C@@H]1O[C@H](O[C@H]2[C@@H](O)[C@H](O[C@@H]3[C@@H](O)[C@H](N)C[C@H](N)[C@H]3O[C@H]3O[C@H](CN)[C@@H](O)[C@H](O)[C@H]3N)O[C@@H]2CO)[C@H](N)[C@@H](O)[C@@H]1O.O=S(=O)(O)O [neomycin sulphate, Neomycin sulphate]
Bacillus pumilus; [5]
  Comments: No effect
  Observed effect on p-t curves Related to standard growth curve: 1X standard curve
Bacillus pumilus; 0.5 ug/ml added at 0 % of p-t curve
  Comments: Inhibition of RNA synthesis
Bacillus pumilus; 1 ug/ml added at 10 % of p-t curve
  Comments: Growth promoting effect potential stimulation of RNA synthesis
Bacillus pumilus; 1 ug/ml added at 10 % of p-t curve, at 11 h
  Observed effect on p-t curves Related to standard growth curve: 1.2 X signal at 11 h
Bacillus pumilus; 1 ug/ml added at 15 % of p-t curve
  Comments: Growth promoting effect potential stimulation of RNA synthesis
Bacillus pumilus; 1 ug/ml added at 15 % of p-t curve, at 11 h
  Observed effect on p-t curves Related to standard growth curve: 1.2 X signal at 11 h
Bacillus pumilus; 1 ug/ml added at 25 % of p-t curve
  Comments: Growth promoting effect potential stimulation of RNA synthesis
Bacillus pumilus; 1 ug/ml added at 25 % of p-t curve, at 11 h
  Observed effect on p-t curves Related to standard growth curve: 5X signal at 11 h
Bacillus pumilus; 2 ug/ml added at 10 % of p-t curve
  Comments: Growth promoting effect potential stimulation of RNA synthesis
Bacillus pumilus; 2 ug/ml added at 10 % of p-t curve, at 11 h
  Observed effect on p-t curves Related to standard growth curve: 1.2 Xsignal at 11 h
Bacillus pumilus; 0.5 and 1 x MIC (1-2 µg/ml) added after an increase of 10% of full scale deflection
  power output: the same effect was observed
Bacillus pumilus; 0.5 x MIC (1µg/ml) added after a 25% increase power output
  power output: massive power output 2-4h after addition
Bacillus pumilus; > 2 ug/ml added at 10 % of p-t curve
  Comments: Inhibition of RNA synthesis Possible to achieve linear dose-response at 7 hours after addition of antibiotic to the bacterial culture, after 11 hours heat-out put levels off b ut do not return to baseline indicating a bacteriostatic effect and maximum inhibition of RNA synthesis
Bacillus pumilus; > 2 ug/ml added at 10 % of p-t curve, at 11 h
  Observed effect on p-t curves Related to standard growth curve: 0.75 or less at 11 h
Bacillus pumilus; added after an increase in power output of 15% of full scale deflection
  power output: only marginally larger than that observed for the normal growth curve
Bacillus pumilus; higher concentrations of antibiotic
  power output: a decrease in power output was observed
Bacillus pumilus; organism not given
  concentrations at which an increased heat output can be observed: < 1 µg/mL
[1]; single antibiotic at its MIC (0.25ug/ml Neo; 100ug/ml ZNB), added at 50 % of p-t curve
  Observed effect on p-t curves: No effect on p-t curve
[2]; as printed in table heads
  MIC: 0.25 µg/mL
Respiring E.coli; Fig. 16
  effect on power: an increase in power
Respiring E.coli; NEO 500 ug/ml
  Comments: Consistent with increased rate of RNA synthesis
Respiring E.coli; NEO 500 ug/ml, pH 8
  Observed effect on p-t curves: Increase in heat output
Respiring E.coli; all concentrations
  heat output: increased heat output
Respiring E.coli; table
  Linear dose-response between: 10 to 100 µg/mL
Respiring E.coli; text
  linear relationship between dose and the reciprocal of increase in response from the control curve: 20 to 100 µg/mL
E. coli; as printed in table head
  MBC: 5900 µg/mL
  MIC: 5900 µg/mL
E. coli; text
  MIC: 500 µg/mL
B. pumilus; 5.1 x 10^6 cfu/ml
  effect at MIC: bacteriostatic
B. pumilus; 5.1 x 10^6 cfu/ml, inoculum used in the microcalorimetric incubations
  MIC: 2 µg/mL
B. pumilus; inoculum of 1x10^5 cfu/ml
  MIC: 0.1 µg/mL
  effect at MIC: bacteriostatic
B. pumilus; listed as NEO
  MIC: 1 µg/mL
Micrococcus flavus [3]
  Observed effect on p-t curves: No effect on p-t curve
Micrococcus flavus [4]
  MIC: 4 µg/mL
